Test results reported in US7838529B2, “Xanthine derivates, their preparation and their use in pharmaceutical compositions” (Boehringer Ingelheim International GmbH, priority 2002, dated 2010).

Biological target: T1, DPP-IV (Homo sapiens, UniProt P27487)
T1 construct: an extract of human colon carcinoma cell line Caco-2 is used as the DPP-IV source; endogenous in cells; host or cells: Caco-2 (human colon carcinoma), differentiated to induce DPP-IV expression
Test: DPP-IV assay with Caco-2 cell extract as DPP-IV source
Type: biochemical
Settings: extract of human colon carcinoma cell line Caco-2; AFC substrate 100 μM; 60 minutes at ambient temperature; read-out: DPP-IV inhibition IC50
Protocol: The differentiation of the cells in order to induce the DPP-IV expression was carried out as described by Reiher et al., “Increased Expression of Intestinal Cell Line Caco-2”, Proc. Natl. Acad. Sci. Vol. 90, pages 5757-5761 (1993). The cell extract was obtained from cells solubilized in a buffer (10 mM Tris HCl, 0.15 M NaCl, 0.04 t.i.u. aprotinin, 0.5% Nonidet P-40, pH 8.0) by centrifuging at 35,000 g for 30 minutes at 4° C. (to remove cell debris).
The DPP-IV assay was carried out as follows:
50 μL substrate solution (AFC; AFC is amido-4-trifluoromethylcoumarin), final concentration 100 μM, were placed in black microtitre plates. 20 μL of assay buffer (final concentrations 50 mM Tris HCl pH 7.8, 50 mM NaCl, 1% DMSO) was pipetted in. The reaction was started by adding 30 μL of solubilized Caco-2 protein (final concentration 0.14 μg of protein per well). The test substances to be investigated were typically added prediluted in 20 μL, and the volume of assay buffer was then reduced accordingly. The reaction was carried out at ambient temperature, incubating for 60 minutes. Then the fluorescence was measured in a Victor 1420 Multilabel Counter, the excitation wavelength being 405 nm and the emission wavelength being 535 nm. Blank readings (corresponding to 0% activity) were obtained in mixtures without any Caco-2 protein (volume replaced by assay buffer), control values (corresponding to 100% activity) were obtained in mixtures with no substance added. […]

T1 sequence (P27487 whole entry): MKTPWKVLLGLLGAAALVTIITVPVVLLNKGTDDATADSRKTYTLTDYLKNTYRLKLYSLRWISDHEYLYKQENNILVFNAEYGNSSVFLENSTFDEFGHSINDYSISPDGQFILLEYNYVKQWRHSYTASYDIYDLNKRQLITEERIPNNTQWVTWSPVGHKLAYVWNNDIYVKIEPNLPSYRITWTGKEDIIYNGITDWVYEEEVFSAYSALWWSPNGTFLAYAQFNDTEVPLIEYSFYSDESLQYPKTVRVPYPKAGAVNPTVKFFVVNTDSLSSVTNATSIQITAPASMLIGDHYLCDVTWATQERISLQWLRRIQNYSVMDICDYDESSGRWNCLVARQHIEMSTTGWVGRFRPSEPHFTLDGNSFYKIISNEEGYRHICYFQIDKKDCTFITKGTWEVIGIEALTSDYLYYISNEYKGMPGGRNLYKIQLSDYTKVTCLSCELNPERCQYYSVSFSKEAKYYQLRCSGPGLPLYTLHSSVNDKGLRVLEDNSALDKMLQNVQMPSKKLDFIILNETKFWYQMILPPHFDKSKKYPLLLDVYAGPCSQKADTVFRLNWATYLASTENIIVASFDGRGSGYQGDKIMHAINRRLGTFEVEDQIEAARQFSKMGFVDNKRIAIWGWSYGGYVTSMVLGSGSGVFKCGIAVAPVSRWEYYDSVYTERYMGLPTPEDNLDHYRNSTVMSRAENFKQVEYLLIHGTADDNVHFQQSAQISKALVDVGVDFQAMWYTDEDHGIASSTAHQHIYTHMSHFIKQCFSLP

| Structure (SMILES) | IC50 [nM] |
| --- | --- |
| CC(C)=CCn1c(N2CCCC(N)C2)nc2c1c(=O)n(CC(=O)c1ccccc1NC(=O)C1CC1)c(=O)n2C (stereo not drawn) [1 (1), 1-(2-{2-[(cyclopropylcarbonyl)amino]phenyl}-2-oxoethyl)-3-methyl-7-(3-methyl-2-buten-1-yl)-8-(3-aminopiperidin-1-yl)xanthine] | 11 |
| CC#CCn1c(N2CCC[C@H](N)C2)nc2c1c(=O)n(CC(=O)c1ccccc1NC(=O)C1CC1)c(=O)n2C [1 (6), 1-(2-{2-[(cyclopropylcarbonyl)amino]phenyl}-2-oxoethyl)-3-methyl-7-(2-butyn-1-yl)-8-((S)-3-aminopiperidin-1-yl)xanthine] | 5 |
| C/C=C/Cn1c(N2CCCC(N)C2)nc2c1c(=O)n(CC(=O)c1ccccc1NC(=O)c1ccccn1)c(=O)n2C (stereo not drawn) [1 (7), 1-[2-(2-{[(pyridin-2-yl)carbonyl]amino}phenyl)-2-oxoethyl]-3-methyl-7-((E)-2-buten-1-yl)-8-(3-aminopiperidin-1-yl)xanthine] | 8 |
| CC(C)=CCn1c(N2CCCC(N)C2)nc2c1c(=O)n(CC(=O)c1ccccc1NC=O)c(=O)n2C (stereo not drawn) [Example 1, 1-[2-(2-formylaminophenyl)-2-oxoethyl]-3-methyl-7-(3-methyl-2-buten-1-yl)-8-(3-aminopiperidin-1-yl)xanthine] | 5 |

Compounds with a lower IC50, results first:

| IC50 [nM] | Structure (SMILES) |
| --- | --- |
| 4 | C/C=C/Cn1c(N2CCC[C@@H](N)C2)nc2c1c(=O)n(CC(=O)c1ccccc1NC(=O)C1CC1)c(=O)n2C [1 (3), 1-(2-{2-[(cyclopropylcarbonyl)amino]phenyl}-2-oxoethyl)-3-methyl-7-((E)-2-buten-1-yl)-8-((R)-3-aminopiperidin-1-yl)xanthine] |
| 3 | CC#CCn1c(N2CCCC(N)C2)nc2c1c(=O)n(CC(=O)c1ccccc1NC=O)c(=O)n2C (stereo not drawn) [1 (2), 1-[2-(2-formylaminophenyl)-2-oxoethyl]-3-methyl-7-(2-butyn-1-yl)-8-(3-aminopiperidin-1-yl)xanthine] |
| 3 | C/C=C/Cn1c(N2CCC[C@H](N)C2)nc2c1c(=O)n(CC(=O)c1ccccc1NC(=O)C1CC1)c(=O)n2C [1 (4), 1-(2-{2-[(cyclopropylcarbonyl)amino]phenyl}-2-oxoethyl)-3-methyl-7-((E)-2-buten-1-yl)-8-((S)-3-aminopiperidin-1-yl)xanthine] |
| 3 | CC#CCn1c(N2CCC[C@@H](N)C2)nc2c1c(=O)n(CC(=O)c1ccccc1NC(=O)C1CC1)c(=O)n2C [Example 1 (5), 1-(2-{2-[(cyclopropylcarbonyl)amino]phenyl}-2-oxoethyl)-3-methyl-7-(2-butyn-1-yl)-8-((R)-3-aminopiperidin-1-yl)xanthine] |

Test system: not listed separately
Test: Tolerability after oral administration to rats (behavior)
Type: in vivo
Settings: 10 mg/kg

| Structure (SMILES) | changes in the animals' behavior |
| --- | --- |
| CC#CCn1c(N2CCC[C@@H](N)C2)nc2c1c(=O)n(CC(=O)c1ccccc1NC(=O)C1CC1)c(=O)n2C [Example 1 (5), 1-(2-{2-[(cyclopropylcarbonyl)amino]phenyl}-2-oxoethyl)-3-methyl-7-(2-butyn-1-yl)-8-((R)-3-aminopiperidin-1-yl)xanthine] | no changes in the animals' behavior could be detected |
